The test system of data set [1] is post-AMI left ventricular remodeling / infarct expansion. Particulars: cited from earlier work.
The test system of data set [2] is Japanese patients with IPF. The note with it: 1,800 mg/day, 107 Japanese patients with IPF; cited from earlier work.
Data set [3] relates to rat model of bleomycin-induced lung fibrosis. The data set can be described thus: Rat model of bleomycin induced pulmonary fibrosis: αSMA protein in lung, western blot. The class given is in vivo. Particulars: fluvoxamine 20 mg/bwkg/day + NE-100 1 mg/bwkg/day for three weeks. The method, then:
(Bars represent Mean±SEM, n=6/group).
(§1) For the induction of pulmonary fibrosis male Wistar rats were anesthetized. Bleomycin (5 mg/bwkg in a 300 μl solution of isotonic saline) or 300 μl isotonic saline was administered into the trachea using a 30G needle.
(§2) Animals were randomly divided into 4 groups of 6 rats each as follows (i)—control group was sham operated, received isotonic saline per os daily for 3 weeks, (ii) vehicle treated group: received isotonic saline per os daily for 3 weeks after the induction of lung fibrosis, (iii) fluvoxamine treated group: received fluvoxamine (20 mg/bwkg/day per os for 3 weeks after the induction of lung fibrosis), (iv) fluvoxamine+NE100 treated group: received fluvoxamine (20 mg/bwkg/day; per os) and 1 mg/bwkg/day NE100 (i.p. for 3 weeks after the induction of lung fibrosis. […]
Tissue samples were lysed in buffer containing leupeptin, aprotinin, Triton X-100, Tris-HCl, Ethylene glycol-bis (2-aminoethylether),N,N,N′,N′-tetraacetic-acid, NaF, Phenylmethylsulphonylfluoride and Na-orthovanadate (each substance were purchased from Sigma-Aldrich Co., St. Louis, Mo., USA) and centrifuged to pellet nuclei and large cellular fragments. Protein concentration of the supernatants was determined by Bradford assay (Bio-Rad Laboratories, Hercules, Calif., USA). […] Bands were analyzed with Quantity One software version 4.6.9. […]

The next data set deals with NRK49F cells. The data set can be described thus: Cell viability MTT assay in myofibroblasts. It is filed as cell-based, rat. The note with it: 24-hours treatment, commonly used doses 1-10 μM.
Data set [4] relates to Streptozotocin induced type 1 diabetic rats. Nature of the data set: Diabetic rat kidney: fibronectin staining. The class given is in vivo. The note with it: fluvoxamine 20 mg/bwkg/day + NE-100 1 mg/bwkg/day.
For data set [5] the test system is unchanged. Nature of the data set: Diabetic rat kidney: αSMA protein level, western blot. Particulars: diabetic rats, fluvoxamine + NE-100 1 mg/bwkg/day. It is filed as in vivo.
For data set [6] the test system is unchanged. The data set can be described thus: Diabetic rat kidney: Masson's trichrome staining, tubulointerstitial fibrosis. The class given is in vivo. Particulars: rats treated with 20 mg fluvoxamine + NE-100 1 mg/bwkg/day.
The test system of data set [7] is rat model of bleomycin-induced lung fibrosis. Nature of the data set: Rat model of bleomycin induced pulmonary fibrosis: Masson trichrome staining of lung. Particulars: fluvoxamine 20 mg/bwkg/day + NE-100 1 mg/bwkg/day for three weeks. The class given is in vivo. The method, then:
Masson trichrome staining of tissue sections was performed Bars represent Mean±SEM, n=6/group). Specifically:
as §1, §2
The stained sections were viewed and photographed with Pannoramic 250 Flash and Pannoramic Viewer 1.15.2 (3D HISTECH Ltd. Budapest, Hungary) Adobe Photoshop 13.0 and Scion Image for Windows software were used for the analysis. […] Finally these ratios were statistically analyzed in all of the treatment groups.

Data set [8] deals with Streptozotocin induced type 1 diabetic rats. The data set can be described thus: Diabetic rat kidney: PAS staining, mesangial matrix expansion. The class given is in vivo. Particulars: fluvoxamine 20 or 2 mg/bwkg/day + NE-100 1 mg/bwkg/day.
The test system of data set [9] is NRK49F rat kidney interstitial fibroblast cell lines. The data set can be described thus: PDGFB-induced myofibroblast proliferation (MTT). The class given is cell-based. Particulars: for PDGF-induced myofibroblast proliferation: 10 ng/mL PDGFB, 24 hours, different concentrations of agonist.
The test system of data set [10] is mice with unilateral ureter obstruction (UUO). The data set can be described thus: Mice model of unilateral ureteral obstruction (UUO): Masson's trichrome, tubulointerstitial fibrosis. The class given is in vivo. Particulars: fluvoxamine 20 mg/bwkg/day + NE-100 1 mg/bwkg/day for one week.
The target in another data set is S2R (Homo sapiens, UniProt Q5BJF2). Particulars: read-out: Ki for σ2 receptors; cited from earlier work.
The test system of another data set is NRK49F myofibroblasts. Particulars: all applied concentrations, even the smallest 1 μM.
The target of another data set is PCP receptors. The note with it: cited from earlier work.

Each structure is given as a SMILES string.

Sequence of S2R (Q5BJF2 whole entry, species assumed): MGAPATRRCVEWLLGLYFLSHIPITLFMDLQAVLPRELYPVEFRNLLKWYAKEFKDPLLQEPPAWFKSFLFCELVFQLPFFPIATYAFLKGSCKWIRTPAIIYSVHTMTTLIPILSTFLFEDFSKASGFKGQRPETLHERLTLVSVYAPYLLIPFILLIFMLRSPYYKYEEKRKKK
Experimental for NRK49F myofibroblasts: In 6-well plates of NRK49F myofibroblasts (6×10^6 cells/well) TGF-β (1 nM) induced production of fibrillar components of the extracellular matrix was measured by Sirius Red staining. To investigate the effect of S1R agonist compounds a group of cells was treated for 48 hours with the various S1R agonists. Solvent treated cells served as controls. (Bars represent mean±SEM)
To investigate the deposition of fibrillar collagen Sirius Red staining was performed. 48 hours after the treatment with TGF-β and said compounds the NRK-49F cells were incubated for 10 minutes with Kahle fixative solution. 0.1% Sirius Red (Direct Red 80, Sigma-Aldrich) in 1.2% picric acid was added for each well and plates were incubated for 30 minutes at RT. The unconnected dye molecules were washed with distilled water. The bound Sirius Red dye was eluated with 0.1 M NaOH solution, absorbance was recorded at 540 nm in a Hidex Chameleon Microplate Reader (Triathler, Plate Chameleion, 300SL Lablogic Systems, Inc., Brandon, Fla., USA) used MikroWin program. Vehicle treated cells served as controls.

Take `COc1ccc(/C=C/C(=O)Nc2ccccc2C(=O)O)cc1OC` [tranilast, 2-{[(2E)-3-(3,4-dimethoxyphenyl)prop-2-enoyl]amino}benzoic acid]: the left ventricular remodeling entry in data set [1] (commencement of treatment delayed to 7 days post-AMI) is listed as “impeded left ventricular remodeling”. Further, the infarct expansion result in data set [1] (intervention from 24h post-AMI) is reported as “exacerbated infarct expansion”.

In the case of `Cc1ccc(=O)n(-c2ccccc2)c1` [pirfenidone, 5-Methyl-1-phenylpyridin-2-one], the “primary end point, pirfenidone versus placebo” value in [2] was “not significantly different between the two groups”.

Regarding `CCCN(CCC)CCc1ccc(OC)c(OCCc2ccccc2)c1.Cl` [NE-100, 4-Methoxy-3-(2-phenylethoxy)-N,N-dipropylbenzeneethanamine hydrochloride], the “effect of NE-100 on fluvoxamine's effect on lung αSMA” value in [3] is given as “suspended the beneficial effect of fluvoxamine”. Also, in the data set on NRK49F cells, the “cytotoxicity / cell viability in myofibroblasts” value (from here on “cytotoxicity / cell viability”) is given as “not cytotoxic”. For the same compound, the “effect of NE-100 on fluvoxamine's effect on fibronectin accumulation” value in data set [4] is on record as “suspended this beneficial effect”. Besides, the “effect of NE-100 co-administration on fluvoxamine's effect on αSMA protein level” value in [5] is on record as “suspended”. The “effect of NE-100 co-administration on protective effect of fluvoxamine (tubulointerstitial fibrosis)” value in [6] is given as “inhibited the protective effect of fluvoxamine”. In addition, the “effect of NE-100 on fluvoxamine's effect on lung fibrosis” value in [7] was “suspended the effect of fluvoxamine”. Also, the “effect of NE-100 co-administration on renoprotection of fluvoxamine (mesangial matrix expansion)” value in data set [8] is listed as “prohibited the renoprotection of fluvoxamine”. In data set [9] (NE-100 3 μM with fluvoxamine 10 μM, PDGF-induced), the “effect of NE-100 co-incubation on anti-proliferative effect of fluvoxamine” value was “suspended the effect of fluvoxamine”. Besides, in [10], the “effect of NE-100 on fluvoxamine's effect on tubulointerstitial fibrosis after UUO” value is on record as “suspended the beneficial effect of fluvoxamine”.

Regarding `O=C(OCCN1CCOCC1)C1(c2ccccc2)CCCCC1` [PRE-084, 2-morpholin-4-ylethyl 1-phenylcyclohexane-1-carboxylate], in the data set with NRK49F cells, the “cytotoxicity / cell viability” value is on record as “not cytotoxic”. The Ki on S2R was 13.1 µM. Also, the “TGFβ-induced ECM production (Sirius Red)” value in the data set with NRK49F myofibroblasts is reported as “significantly inhibited TGFβ-induced ECM production”. Also, in data set [9], the PDGF-induced myofibroblast proliferation entry is “significantly decreased PDGF-induced myofibroblast proliferation”. Moreover, the IC50 at PCP receptors was greater than 100 µM.

In the case of `COc1ccc(CCN2CCN(CCCc3ccccc3)CC2)cc1OC` [SA-4503, 1-[2-(3,4-Dimethoxyphenyl)ethyl]-4-(3-phenylpropyl)piperazine], the “cytotoxicity / cell viability” value in the data set on NRK49F cells is “not cytotoxic”. The “TGFβ-induced ECM production (Sirius Red)” value in the data set on NRK49F myofibroblasts is “significantly inhibited TGFβ-induced ECM production”. Besides, the PDGF-induced myofibroblast proliferation result in data set [9] was “significantly decreased PDGF-induced myofibroblast proliferation”.

(Values after patent US10842794B2, “Use of Sigma-1 receptor agonist compounds” (MTA TÁMOGATOTT KUTATÓCSOPORTOK IRODÁJA, priority 2014, dated 2020).)
